Patent US20060211755A1, “3-oxo-1, 3-dihydro-indazole-2-carboxylic acid amide derivatives as phospholipase inhibitors” (Eli Lilly and Company Patent Division, priority 2003, published 2006)

What follows are molecules tested against T1, Recombinant Hepatic Lipase (Homo sapiens, UniProt P11150) (assay: Hepatic Lipase Phospholipase Assay). Settings: ThioPEG substrate, DTNB, 37° C., 10 min preincubation; read-out: Hepatic Lipase Inhibition IC50.
T1 sequence (P11150 23-499): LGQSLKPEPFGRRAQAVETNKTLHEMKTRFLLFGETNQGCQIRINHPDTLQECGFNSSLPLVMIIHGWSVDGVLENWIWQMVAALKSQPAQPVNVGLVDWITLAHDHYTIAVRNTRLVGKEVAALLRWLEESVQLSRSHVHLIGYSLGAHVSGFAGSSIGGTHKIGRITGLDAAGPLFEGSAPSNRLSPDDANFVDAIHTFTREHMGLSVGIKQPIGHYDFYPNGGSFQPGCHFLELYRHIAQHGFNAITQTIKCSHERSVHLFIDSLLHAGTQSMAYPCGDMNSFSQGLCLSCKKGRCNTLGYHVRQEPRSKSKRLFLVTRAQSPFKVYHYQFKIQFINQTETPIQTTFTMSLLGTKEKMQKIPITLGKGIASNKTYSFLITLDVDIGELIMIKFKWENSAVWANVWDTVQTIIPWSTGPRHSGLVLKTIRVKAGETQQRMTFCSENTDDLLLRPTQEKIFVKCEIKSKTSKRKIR
Assay type: biochemical
Protocol: Hepatic Lipase Phospholipase Assay
Efficacy was determined by testing various compounds of the invention in a hepatic lipase assay discussed below, and disclosed in U.S. patent application Ser. No. 09/609,871 filed Jul. 3, 2000 incorporated herein by reference in its entirety for U.S. Patent office purposes.
• Substrate Buffer A: 100 mM Hepes, pH 8.3 at 37° C. • Substrate Buffer B: 100 mM Hepes, pH 8.3 at 37° C. with 6.83 mM Triton X100 • ThioPEG: Molecular wt. of 540 • Recombinant Hepatic Lipase • Thiophospholipid: about 0.42 mM thiophospholipid in chloroform • DTNB Solution: about […] DTNB in DMSO (dimethyl sulfoxide) Hepes Buffer A
For Hepes Buffer A, there is 2.4 g Hepes/100 mL water. Therefore 36 grams of Hepes is dissolved in 1500 mL of water. The mix solution's pH is adjusted to pH 8.3 at 37° C. and brought up to 1500 mL with water. 500 mL of Buffer A is retained for the Protein Buffer.
To the remaining 1000 mL of Hepes Buffer A, 4.49 g of Triton X-100 is added and then the combination mixed on a stir plate. It is optimal that stock Buffer A not be too cold or Triton X-100 will take a long time to go into solution
For 0.42 mM substrate stock, use 0.227 mg of thioPEG/mL of Substrate Buffer B. Approximately 20 mg of sn-1 thiol substituted. Phosphatidyl Ethylene Glycol (see Examples for preparation method) is weighed into a vial, such as a scintillation vial. Enough chloroform should be added to make a 2.043 mg/mL solution. Sonicate the solution briefly until well dissolved. Next, pipette 1 mL of chloroform/substrate solution into each scintillation vial. This should give enough substrate for one full 96 well plate. Each vial is dried with nitrogen until solvent removed, swirling each vial simultaneously such that a thin film of substrate will be easily reconstituted in each buffer. Each vial is then frozen.
Daily stock preparation is performed for 9 mL of substrate (one microtiter plate). On the day of the assay, the substrate vial is removed from the freezer and combined with 9 mL of pre-warmed (37° C.) substrate buffer (the final concentration is 0.227 mg/mL). Place the buffer in a 37° C. water bath. Sonicate for 5 minutes or vortex until solution is clear before use.
The enzyme is stored at −80° C. in 100 or 50 μL portions. A 0.406 mg/mL recombinant hepatic lipase stock requires a 50-fold dilution. Therefore, to a 50 μL or 100 μL enzyme aliquot, 2450 μL or 4900 μL, respectively, of substrate Buffer A (protein buffer) should be added. The enzyme should then be stored on ice until ready to use. The protein concentration of enzyme is about 0.406 mg/mL.
To make a 20 mg/mL stock solution, 2-3 mg of DTNB is weighed and then mixed with an appropriate amount of 100% DMSO (dimethyl sulfoxide) to make the desired concentration. This mixture is sonicated for five minutes.
The above solution should be diluted 10 fold with substrate Buffer B (concentration now 2 mg/mL). Then to the thioPEG substrate solution, add 60 μl of dilute DTNB per mL of thioPEG substrate solution. Thus for 9 mL of substrate, 540 microliters of dilute DTNB (final concentration in substrate solution=0.11 mg/mL).
The test compound is dissolved in pure DMSO at […]. As shown below in Table 2, assay concentrations are 10, 1, 0.1, 0.33, 0.011, 0.0037, 0.0012 and 0.00041 μM.
Using a spectrometer, DTNB is used as a thiol coloring reagent with an incubator temperature of 37° C. Substrate Buffer B is placed in a 37° C. water bath to pre-warm. […]

IC50	SMILES
368 ± 15 nM	CCCCNC(=O)n1[nH]c2ccccc2c1=O
19 ± 0.4 nM	CCCCNC(=O)n1c(=O)c2ccccc2n1C
67.2 ± 3.2 nM	CCCCCNC(=O)n1[nH]c2ccccc2c1=O [drawing 15]

SMILES	IC50
CCCCCNC(=O)n1c(=O)c2ccccc2n1CCC	59.2 ± 1.1 nM
CCCCCNC(=O)n1c(=O)c2ccccc2n1CCc1ccccc1	97.1 ± 1 nM

What follows are molecules tested against T2, endothelial lipase (EL) (Homo sapiens, UniProt Q9Y5X9) (assay: Endothelial Lipase Inhibition (Thio PEG substrate, conditioned media)). Settings: EL expressed from AV12 cells, 37° C., average of 3 experiments.
T2 construct: made in house; host or cells: AV12 cells (conditioned media, non-purified)
T2 sequence (Q9Y5X9 21-500): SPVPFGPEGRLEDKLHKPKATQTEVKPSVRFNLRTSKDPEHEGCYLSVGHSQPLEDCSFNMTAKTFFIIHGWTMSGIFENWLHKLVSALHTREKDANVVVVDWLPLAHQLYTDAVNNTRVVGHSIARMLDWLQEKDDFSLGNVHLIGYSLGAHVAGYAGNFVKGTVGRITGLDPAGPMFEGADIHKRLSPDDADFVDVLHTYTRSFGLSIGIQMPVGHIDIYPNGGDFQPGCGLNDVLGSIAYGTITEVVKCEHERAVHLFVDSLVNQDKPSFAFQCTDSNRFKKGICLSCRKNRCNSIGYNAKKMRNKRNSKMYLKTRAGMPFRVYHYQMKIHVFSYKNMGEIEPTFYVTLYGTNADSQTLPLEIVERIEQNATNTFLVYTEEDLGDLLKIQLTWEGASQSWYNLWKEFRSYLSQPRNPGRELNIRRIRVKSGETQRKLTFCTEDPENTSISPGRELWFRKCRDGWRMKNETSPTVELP
Assay type: biochemical
Protocol: Methods for Characterization of Endothelial Lipase Activity
Hepatic lipase (HL) and endothelial lipase (EL) were expressed from AV12 cells. Aliquots from one day's collection of media were stored at −70° C. Activity was measured for both enzymes in conditioned media, (non-purified) where they were tested on the same plate with Thio PEG substrate (0.06 mol fraction, 7.24 mM total lipid), at 37° C. for 30 minutes. […] The OD for EL at 1× was 6.029. Therefore, when HL was used in studies where it was compared to EL, the HL was at 0.25× and EL was used at 1×. All experiments were done in triplicate with enzyme from conditioned media.
Assay conditions of assay were as follows. Both substrates for EL were run at 0.03 mol fraction, 10 mM total lipid. They were dissolved in 100 mM Hepes with 9.95 mM TX100. Both substrates for HL were run at 0.06 mol fraction and 7.25 mM total lipid. They were dissolved in 100 mM Hepes with 6.83 mM Triton X100. The EL enzyme was used at 1× and the HL enzyme was used at 0.25×. The order of addition was as follows: 10 μL of 10% DMSO, 80 μL of substrate and 10 μL of enzyme. The DMSO and substrate were incubated for 10 minutes at 37° C. before the addition of the enzyme. DTNB was added to the substrate prior to addition to the well at 0.096 mg/mL final plate. concentration. The experiments were performed 3 times. Data represents an average of these.
Several compounds were tested with HL and EL to determine their ability to inhibit these enzymes. Conditions of the assay were as mentioned in the previous paragraph except for the order of addition. In these experiments, the order of addition was 10 μL of drug/control, 10 μL of enzyme followed by a 10 minute incubation at 37° C. This was followed by the addition of the 80 μL of Thio PEG substrate containing DTNB. Each experiment was performed 3 times. Data represents an average.

IC50	SMILES
11.4 ± 5.17 nM	CCc1ccccc1CNC(=O)n1[nH]c2ccccc2c1=O
73.8 ± 26.2 nM	O=C(NCc1ccccc1)n1[nH]c2ccccc2c1=O
45.1 ± 27.5 nM	O=C(NCc1ccc2c(c1)OCO2)n1[nH]c2ccccc2c1=O
13.2 ± 2.83 nM	O=C(NCc1csc2ccccc12)n1[nH]c2ccccc2c1=O
